IC50 data for 16 molecules are collected here from US20250034166A1, “POLYCYCLIC FUSED RING DERIVATIVES AND USE THEREOF” (Jacobio Pharmaceuticals Co., Ltd., priority 2021, published 2025).

Each structure is given as a SMILES string. pIC50: −log10 of the molar value. Where two headings read alike, the source gives them in different places.

The test system of experiment [1] is SW620 cells (K-Ras G12V). The experiment is described as follows: Phospho-ERK1/2(THR202/TYR204) HTRF assay. In kind it is cell-based. The note with it: Homo sapiens, SW-620, 2 hours incubation, read-out: p-ERK, IC50 SW620. How it is done: (§1) p-ERK (MAPK pathway) inhibition activity of each of compounds in a variety of K-Ras mutant and K-Ras WT cell lines indicated in Table 12 was evaluated. MKN-1 with K-Ras WT amplification is also a K-Ras dependent cell line.
(§2) Each of cells in culture medium was seeded in 96-well plates at density indicated in Table 16 and then put in a cell incubator to incubate overnight. The next day, the culture medium was removed and the compound diluted in assay medium was added in each well. After 2 hours incubation in a cell incubator, the assay medium in 96-well plates was removed, then 50 μL of 1× blocking reagent-supplemented lysis buffer (Cisbio) was added and the plates were incubated at 25° C. for 45 min with shaking. 10 μL of cell lysates from the 96-well plates were transferred to a 384-well plate (Greiner) containing […] HTRF® pre-mixed antibodies (Cisbio 64AERPEH). The plate was incubated 4 hours at 25° C. and then read HTRF signals on Tecan Spark multimode microplate reader. The data were analyzed using a 4-parameter logistic model to calculate IC50 values.
For orientation: In TR-FRET formats the signal depends on donor and acceptor labels being close together.

Experiment [2] relates to AGS cells (K-Ras G12D). In words: Phospho-ERK1/2(THR202/TYR204) HTRF assay. The following applies: Homo sapiens, 2 hours incubation, read-out: p-ERK, IC50 AGS. In kind it is cell-based. The protocol: as §1, §2
The test system of experiment [3] is SW620 cells (K-Ras G12V). In words: 2D cell growth inhibition assay (CellTiter-Glo). In kind it is cell-based. The note with it: Homo sapiens, SW-620, 6 days, absolute IC50. How it is done: (§3) The cell growth inhibition activity of each of compounds was tested by performing cell growth inhibition assays on a variety of K-Ras mutant and K-Ras WT cell lines indicated in Table 14.
(§4) Each of cells in culture medium was plated in TC-treated 96-well plates at a density indicated in Table 14 and incubated in a cell incubator overnight. The next day, each of compounds was diluted in culture medium and added to the plates. After 6 days incubation in cell incubator, the cell viability was detected by CellTiter-Glo® Cell Viability Assay kit (Promega).
Background: In ATP-based viability assays light output follows the ATP content of the culture.

The test system of experiment [4] is AGS cells (K-Ras G12D). In words: 2D cell growth inhibition assay (CellTiter-Glo). In kind it is cell-based. The following applies: Homo sapiens, 6 days, absolute IC50. The protocol: as §3, §4
The test system of experiment [5] is AsPC-1 cells (K-Ras G12D). The experiment is described as follows: 2D cell growth inhibition assay (CellTiter-Glo). In kind it is cell-based. The note with it: Homo sapiens, ASPC1, AsPC-1 (G12D), 6 days, absolute IC50. The protocol: as §3, §4
The target of experiment [6] is T1, K-Ras G12D (Homo sapiens, UniProt P01116, G12D). In words: biochemical.
In experiment [7] the target is T2, K-Ras G12V (Homo sapiens, UniProt P01116, G12V). In words: biochemical.
Experiment [8] concerns the target T1, K-Ras G12D. In words: biochemical. This is another data set of the same source.
In experiment [9] the target is T2, K-Ras G12V. In words: biochemical. This is another data set of the same source.

T2 sequence (P01116 1-169 isoform P01116-2 G12V): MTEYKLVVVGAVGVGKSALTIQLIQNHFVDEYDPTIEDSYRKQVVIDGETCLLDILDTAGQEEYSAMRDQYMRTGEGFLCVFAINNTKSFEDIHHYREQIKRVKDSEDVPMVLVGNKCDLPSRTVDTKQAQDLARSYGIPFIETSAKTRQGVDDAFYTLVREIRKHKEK
T1 sequence (P01116 1-169 isoform P01116-2 G12D): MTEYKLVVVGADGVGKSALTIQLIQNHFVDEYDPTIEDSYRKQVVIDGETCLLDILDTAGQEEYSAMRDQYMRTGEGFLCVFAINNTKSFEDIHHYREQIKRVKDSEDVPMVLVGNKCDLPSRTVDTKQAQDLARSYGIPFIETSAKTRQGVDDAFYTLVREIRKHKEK

`C#Cc1c(F)ccc2cc(O)cc(-c3nc4c5c(nc(OC[C@@]67CCCN6C[C@H](F)C7)nc5c3F)N3CCOCC3CCO4)c12` (some centres unmarked) [Compound 12]: the pIC50 (commonly −log10 of the IC50, conventionally taken in molar units) is 6.89 in the experiment on SW620 cells (K-Ras G12V) [1]; 7.32 in the experiment with AGS cells (K-Ras G12D) [2]; 7.04 in the experiment on SW620 cells (K-Ras G12V) [3]; 7.08 with AGS cells (K-Ras G12D) [4]; 6.09 in experiment [5].

With `C#Cc1c(F)ccc2cc(O)cc(-c3cc4c5c(nc(OC[C@@]67CCCN6C[C@H](F)C7)nc5c3F)N3CCOCCC3CO4)c12` (some centres unmarked) [Compound 1], the pIC50 with SW620 cells (K-Ras G12V) [1] was 7.42; with AGS cells (K-Ras G12D) [2] it was 7.79; in the experiment on SW620 cells (K-Ras G12V) [3] it was 7.00; with AGS cells (K-Ras G12D) [4] it was 6.49; in experiment [5] it was 6.01.

As to `C#Cc1c(F)ccc2cc(O)cc(-c3nc4c5c(nc(OC[C@@]67CCCN6C[C@H](F)C7)nc5c3F)N3CCOCC3CO4)c12` (some centres unmarked) [Compound 11], the pIC50 was 7.77 in the experiment on SW620 cells (K-Ras G12V) [1]; 7.58 in the experiment on AGS cells (K-Ras G12D) [2]; 7.60 in the experiment with SW620 cells (K-Ras G12V) [3]; 7.50 in the experiment with AGS cells (K-Ras G12D) [4]; 6.46 in experiment [5].

In the case of `CCc1c(F)ccc2cc(O)cc(-c3nc4c5c(nc(OC[C@@]67CCCN6C[C@H](F)C7)nc5c3F)N3CCOCC3CO4)c12` (some centres unmarked) [Compound 14], the pIC50 in the experiment with SW620 cells (K-Ras G12V) [1] is 7.37; in the experiment on AGS cells (K-Ras G12D) [2], 7.40; with SW620 cells (K-Ras G12V) [3], 7.62; in the experiment with AGS cells (K-Ras G12D) [4] it was 6.98; in experiment [5], 6.15.

As for `C#Cc1c(F)ccc2cc(O)cc(-c3nc4c5c(nc(OC[C@@]67CCCN6C[C@H](F)C7)nc5c3F)N3CCCOCC3CO4)c12` (some centres unmarked) [Compound 3], the pIC50 with SW620 cells (K-Ras G12V) [1] was 8.34; with AGS cells (K-Ras G12D) [2] it was 8.69; with SW620 cells (K-Ras G12V) [3], 8.48; in the experiment with AGS cells (K-Ras G12D) [4], 8.76; in experiment [5], 7.71.

`C#Cc1c(F)ccc2cc(O)cc(-c3nc4c5c(nc(OCC67CCCN6CC(F)C7)nc5c3F)N3CCOCCC3CO4)c12` (centres unmarked) [Compound 2]: the pIC50 in the experiment with SW620 cells (K-Ras G12V) [1] is 8.28; with AGS cells (K-Ras G12D) [2], 8.63; in the experiment with SW620 cells (K-Ras G12V) [3], 7.88; in the experiment with AGS cells (K-Ras G12D) [4] it was 8.29; in experiment [5], 6.87.

As to `C#Cc1c(F)ccc2cc(O)cc(-c3nc4c5c(nc(OC[C@@]67CCCN6C[C@H](F)C7)nc5c3F)N3CCCOC[C@@H]3CO4)c12` [Compound 6], the pIC50 in the experiment on SW620 cells (K-Ras G12V) [1] is 8.00; in the experiment with AGS cells (K-Ras G12D) [2], 8.82; with SW620 cells (K-Ras G12V) [3], 8.25; with AGS cells (K-Ras G12D) [4], 8.12; in [5] it was 7.10.

For `C#Cc1c(F)ccc2cc(O)cc(-c3nc4c5c(nc(OC[C@@]67CCCN6C[C@H](F)C7)nc5c3F)N3CCCOC[C@H]3CO4)c12` [Compound 5], the pIC50 was 8.99 in the experiment with SW620 cells (K-Ras G12V) [1], 9.28 with AGS cells (K-Ras G12D) [2], 9.09 with SW620 cells (K-Ras G12V) [3] and 9.33 in the experiment with AGS cells (K-Ras G12D) [4].

As to `C#Cc1c(F)ccc2cc(O)cc(-c3nc4c5c(nc(OC[C@@]67CCCN6C[C@H](F)C7)nc5c3F)N3CCCCC[C@H]3CO4)c12` [Compound 20], the pIC50 with SW620 cells (K-Ras G12V) [1] was 8.70; in the experiment with AGS cells (K-Ras G12D) [2], 9.16; in the experiment with SW620 cells (K-Ras G12V) [3], 8.83; in the experiment on AGS cells (K-Ras G12D) [4], 8.91; in [5] it was 7.99.

As to `CCc1c(F)ccc2cc(O)cc(-c3cc4c5c(nc(OC[C@@]67CCCN6C[C@H](F)C7)nc5c3F)N3CCOCCC3CO4)c12` (some centres unmarked) [Compound 4], the pIC50 at K-Ras G12D [6] is 7.49; against K-Ras G12V [7], 7.83; against K-Ras G12D [8], below 6.00; on K-Ras G12V [9], below 6.00.

With `C#Cc1c(F)ccc2cc(O)cc(-c3nc4c5c(nc(OC[C@@]67CCCN6C[C@H](F)C7)nc5c3F)N3CCCCC3CCO4)c12` (some centres unmarked) [Compound 23], the results for the pIC50 in the experiment on SW620 cells (K-Ras G12V) [1] and with AGS cells (K-Ras G12D) [2] were 7.30 and 7.64, respectively.

For `C#Cc1c(F)ccc2cc(O)cc(-c3nc4c5c(nc(OC[C@@]67CCCN6C[C@H](F)C7)nc5c3F)N3CCCCCC3CO4)c12` (some centres unmarked) [Compound 22], the pIC50 in the experiment on SW620 cells (K-Ras G12V) [1] was 8.52; with AGS cells (K-Ras G12D) [2], 8.86; in the experiment on SW620 cells (K-Ras G12V) [3], 8.88; with AGS cells (K-Ras G12D) [4] it was 8.59; in experiment [5] it was 7.81.

With `C#Cc1c(F)ccc2cc(O)cc(-c3nc4c5c(nc(OC[C@@]67CCCN6C[C@H](F)C7)nc5c3F)N3CCCC3CO4)c12` (some centres unmarked) [Compound 21], the pIC50 in the experiment with SW620 cells (K-Ras G12V) [1] was 7.22; with AGS cells (K-Ras G12D) [2], 7.71; with SW620 cells (K-Ras G12V) [3], 7.45; with AGS cells (K-Ras G12D) [4], 7.00; in experiment [5], 6.26.

Take `C#Cc1c(F)ccc2cc(O)cc(-c3nc4c5c(nc(OC[C@@]67CCCN6C[C@H](F)C7)nc5c3F)N3CCCOC[C@H]3CN4C)c12` [Compound 9]: the pIC50 with SW620 cells (K-Ras G12V) [1] is 7.73; with AGS cells (K-Ras G12D) [2], 8.18; in the experiment on SW620 cells (K-Ras G12V) [3] it was 8.12; in the experiment on AGS cells (K-Ras G12D) [4], 8.17; in experiment [5], 7.19.

Take `C#Cc1c(F)ccc2cc(O)cc(-c3nc4c5c(nc(OC[C@@]67CCCN6C[C@H](F)C7)nc5c3F)N3CCCCC3CO4)c12` (some centres unmarked) [Compound 19]: the figures for the pIC50 in the experiment with SW620 cells (K-Ras G12V) [1] and in the experiment with AGS cells (K-Ras G12D) [2] were 8.29 and 8.63, respectively.

In the case of `C#Cc1c(F)ccc2cc(O)cc(-c3nc4c5c(nc(OC[C@@]67CCCN6C[C@H](F)C7)nc5c3F)N3C5COCCC3(CO4)C5)c12` (some centres unmarked) [Compound 16], the pIC50 against K-Ras G12D [6] is 7.24; against K-Ras G12V [7], 7.36; at K-Ras G12D [8] it was below 6.00; on K-Ras G12V [9] it was below 6.00.
